pIC50: −log10 of the molar value.

In the assay the target is T1, PARP-1 (Homo sapiens, UniProt P09874).
T1 construct: purchased Trevigen
T1 sequence (P09874 whole entry): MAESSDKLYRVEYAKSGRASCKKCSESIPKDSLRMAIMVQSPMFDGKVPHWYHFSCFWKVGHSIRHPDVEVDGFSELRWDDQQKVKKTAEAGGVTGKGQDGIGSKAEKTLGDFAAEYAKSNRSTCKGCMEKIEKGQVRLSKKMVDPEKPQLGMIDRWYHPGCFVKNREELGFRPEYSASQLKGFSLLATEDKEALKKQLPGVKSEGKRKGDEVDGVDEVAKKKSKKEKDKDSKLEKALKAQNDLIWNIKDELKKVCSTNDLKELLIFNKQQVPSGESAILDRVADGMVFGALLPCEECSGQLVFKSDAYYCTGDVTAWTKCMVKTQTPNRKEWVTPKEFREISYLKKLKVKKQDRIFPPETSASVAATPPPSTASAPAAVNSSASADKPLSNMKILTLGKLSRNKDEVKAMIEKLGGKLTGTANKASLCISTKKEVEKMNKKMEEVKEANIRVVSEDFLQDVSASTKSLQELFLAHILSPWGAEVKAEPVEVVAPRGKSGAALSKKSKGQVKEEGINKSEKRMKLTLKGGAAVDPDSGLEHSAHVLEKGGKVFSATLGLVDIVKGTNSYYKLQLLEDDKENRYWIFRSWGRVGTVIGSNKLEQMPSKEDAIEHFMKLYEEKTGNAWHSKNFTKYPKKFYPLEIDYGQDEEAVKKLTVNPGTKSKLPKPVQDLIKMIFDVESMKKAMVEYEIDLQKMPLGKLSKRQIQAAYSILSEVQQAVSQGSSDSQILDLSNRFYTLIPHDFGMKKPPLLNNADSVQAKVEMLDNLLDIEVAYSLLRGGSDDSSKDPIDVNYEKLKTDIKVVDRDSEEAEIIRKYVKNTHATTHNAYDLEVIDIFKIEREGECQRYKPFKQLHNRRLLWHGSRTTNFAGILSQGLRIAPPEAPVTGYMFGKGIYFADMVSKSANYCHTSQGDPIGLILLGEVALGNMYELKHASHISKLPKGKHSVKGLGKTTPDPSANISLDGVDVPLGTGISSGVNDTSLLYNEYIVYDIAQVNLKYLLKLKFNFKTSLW
The assay is described as follows: PARP-1 inhibitory activity, HT universal colorimetric PARP assay kit (Trevigen). In kind it is biochemical. As to conditions: estimation as calculated from a 4 point dose response curve; read-out: PARP-1 activity in vitro IC50. How it is done:
The compounds were tested for PARP-1 inhibitory activity by using HT universal colorimetric PARP assay kit obtained from Trevigen, following manufacturer's protocol.
As for `CCn1cc2c(n1)CN(C(=O)c1cc(Cc3n[nH]c(=O)c4ccccc34)ccc1F)C2` [Compound 41, 4-(3-(2-ethyl-2,4,5,6-tetrahydropyrrolo[3,4-c]pyrazole-5-carbonyl)-4-fluorobenzyl) phthalazin-1 (2H)-one], the negative-log IC50 (pIC50) (usually −log10 of the IC50, conventionally taken in molar units) is 8.05.
Consider `O=C(c1cc(Cc2n[nH]c(=O)c3ccccc23)ccc1F)N1CC2CN(C(F)F)CC2C1` (centres unmarked) [Compound 38, 4-(3-(5-(difluoromethyl)octahydropyrrolo[3,4-c]pyrrole-2-carbonyl)-4-fluorobenzyl) phthalazin-1 (2H)-one], for which the pIC50 was 7.04.
Take `CN1C(=O)C2CN(C(=O)c3cc(Cc4n[nH]c(=O)c5ccccc45)ccc3F)CC2C1=O` (centres unmarked) [Compound 27, 5-(2-fluoro-5-((4-oxo-3,4-dihydrophthalazin-1-yl)methyl)benzoyl)-2-methyl tetrahydropyrrolo[3,4-c]pyrrole-1,3(2H,3aH)-dione]: the pIC50 was 7.90.
With `O=C(c1cc(Cc2n[nH]c(=O)c3ccccc23)ccc1F)N1CC2CNCC2C1` (centres unmarked) [Compound 15, 4-(4-fluoro-3-(octahydropyrrolo[3,4-c]pyrrole-2-carbonyl)benzyl)phthalazin-1(2H)-one], the negative-log IC50 (pIC50) is 7.93.
As for `O=C(c1cc(Cc2n[nH]c(=O)c3ccccc23)ccc1F)N1CC2CN(CC(F)(F)F)CC2C1` (centres unmarked) [Compound 7, 4-(4-fluoro-3-(5-(2,2,2-trifluoroethyl)octahydropyrrolo[3,4-c]pyrrole-2-carbonyl)benzyl)phthalazin-1 (2H)-one], the pIC50 is 7.41.
In the case of `O=C(c1cc(Cc2n[nH]c(=O)c3ccccc23)ccc1F)N1CC2CN(Cc3ccccc3F)CC2C1` (centres unmarked) [Compound 25, 4-(4-fluoro-3-(5-(2-fluorobenzyl)octahydropyrrolo[3,4-c]pyrrole-2-carbonyl)benzyl) phthalazin-1(2H)-one], the pIC50 was 7.56.
Turning to `COc1cccc(CN2CC3CN(C(=O)c4cc(Cc5n[nH]c(=O)c6ccccc56)ccc4F)CC3C2)n1` (centres unmarked) [Compound 26], the pIC50 is 7.44.
For the molecule `CCn1ncc2c1CN(C(=O)c1cc(Cc3n[nH]c(=O)c4ccccc34)ccc1F)C2` [Compound 42, 4-(3-(1-ethyl-1,4,5,6-tetrahydropyrrolo[3,4-c]pyrazole-5-carbonyl)-4-fluorobenzyl) phthalazin-1 (2H)-one], the pIC50 is 7.31.
To `COCCN1CC2CN(C(=O)c3cc(Cc4n[nH]c(=O)c5ccccc45)ccc3F)CC2C1` (centres unmarked) [Compound 47, 4-(4-fluoro-3-(5-(2-methoxyethyl)octahydropyrrolo[3,4-c]pyrrole-2-carbonyl)benzyl) phthalazin-1 (2H)-one] belongs 7.32; to `CS(=O)(=O)N1CC2CN(C(=O)c3cc(Cc4n[nH]c(=O)c5ccccc45)ccc3F)CC2C1` (centres unmarked) [Compound 16, 4-(4-fluoro-3-(5-(methylsulfonyl)octahydropyrrolo[3,4-c]pyrrole-2-carbonyl)benzyl) phthalazin-1 (2H)-one], 6.98; to `CN1CC2=C(C1)CN(C(=O)c1cc(Cc3n[nH]c(=O)c4ccccc34)ccc1F)C2` [Compound 33, 4-(4-fluoro-3-(5-methyl-1,2,3,4,5,6-hexahydropyrrolo[3,4-c]pyrrole-2-carbonyl)benzyl) phthalazin-1 (2H)-one], 7.55.
Turning to `O=C(c1cc(Cc2n[nH]c(=O)c3ccccc23)ccc1F)N1CC2C(=O)N(Cc3ccccc3)C(=O)C2C1` (centres unmarked) [Compound 2, 2-benzyl-5-(2-fluoro-5-((4-oxo-3,4-dihydrophthalazin-1-yl)methyl)benzoyl) tetrahydropyrrolo[3,4-c]pyrrole-1,3(2H,3aH)-dione], the negative-log IC50 (pIC50) was 8.08.
As to “Mixture of (1 & 2 isopropyl) 4-(4-fluoro-3-(1,4,5,6-tetrahydropyrrolo[3,4-c]pyrazole-5-carbonyl)benzyl)phthalazin-1(2H)-one [Compound 44]”, the pIC50 is 7.70.
As for `O=C(c1cc(Cc2n[nH]c(=O)c3ccccc23)ccc1F)N1CC2=C(C1)CS(=O)(=O)C2` [Compound 29, 4-(3-(2,2-dioxido-3,4,5,6-tetrahydro-1H-thieno[3,4-c]pyrrole-5-carbonyl)-4-fluorobenzyl)phthalazin-1(2H)-one], the negative logarithm of the IC50 (pIC50) is 7.73.

Values taken from patent US9598418B2, “Substituted phthalazin-1 (2H)-one derivatives as selective inhibitors of poly (ADP-ribose) polymerase-1” (CADILA HEALTHCARE LIMITED, priority 2012, dated 2017).
